Columns and labels:
[1] = test system: 3D reconstructed human epidermis; assay: Membrane integrity (LDH release, colorimetry) in 3D reconstructed human epidermis model; format: cell-based
Text: The aim of the study was to assess the membrane integrity of skin cells in a three-dimensional (3D) reconstructed human epidermis model, by measuring the amount of the enzyme lactate dehydrogenase (LDH) in the culture supernatant, using colorimetry. LDH is an enzyme that is released in the event of cell death. The absence of LDH secretion is a sign that the integrity of epidermal cell membranes is preserved. Samples of 3D reconstructed human epidermis were immersed in an aqueous solution containing 0.5% by weight of sodium lauryl sulfate, for 6 hours. […] The amount of LDH secreted into the supernatant was then determined colorimetrically.

VEGF = assay: Semi-quantitative fluorescence cytokine array (Human Cytokine Array G3), VEGF; format: cell-based; conditions: 0.5% SLS positive control (6 hours)
Protocol: (§1) Cell culture supernatants collected after epidermal treatment are tested using the Human Cytokine Array G3 kit (RayBiotech).
(§2) On a glass slide containing the different specific antibodies, supernatants are deposited at a rate of 100 μL per well. A cocktail of biotin-coupled secondary antibodies is then added. With the addition of streptavidin, signal intensities are detected by fluorescence. Each step is followed by several washes.
(§3) The ratios (fluorescent signal intensity of the marker in the presence of the samples/fluorescent signal intensity of the marker in the untreated control) were calculated for each treatment from n=3 epidermal culture supernatants (except for the untreated control, n=2).
(§4) A ratio >1.5 reflects overexpression of the inflammatory marker.
(§5) A ratio <0.65 indicates underexpression of the inflammatory marker.
(§6) According to the supplier's criteria, signals are usable when they are greater than the average of the background noise+2SD.

IL-8 = assay: ELISA assay of inflammation marker IL-8 in supernatant of 2D reconstructed human epidermis; format: cell-based; conditions: 0.5% SLS positive control (6 hours)
Text: After washing, HRP-streptavidin is deposited in the wells. […] The inflammatory response is interpreted as a sample-to-untreated ratio greater than or equal to 2.
A ratio greater than or equal to 2 reflects overexpression of the inflammatory marker while a ratio less than 2 indicates non-expression of the inflammatory marker.

[2] = test system: reconstructed human epidermis (normal human epidermal keratinocytes, NHEK); assay: MTT cell proliferation (viability) test on 2D reconstructed human epidermis after SLS inflammation; format: cell-based; conditions: % of untreated control
Protocol: Irritating chemical compounds are able to penetrate the stratum corneum and are cytotoxic to cells in the underlying layers. […] Cell viability is measured upon metabolism, by mitochondrial succinic dehydrogenase, of the vital dye MTT [3-(4,5-dimethylthiazol-2-yl)-2,5-bromide diphenyltetrazolium, thiazolyl blue; EINECS number 206-069-5, CAS number 298-93-1)], to a blue formazan salt which is measured quantitatively after its extraction from tissues.
The colored solution is measured spectrophotometrically at 570 nm using the Molecular Devices Vmax microplate reader, and absorbance values are recorded using the SOFTmax PRO v4.7.1 software. Statistical analysis is performed using GraphPad Prism v5.03 software.
Cytotoxicity of samples was tested using the epidermis model and is expressed as a percentage of untreated control (UTC) tissue.

RANTES = assay: Semi-quantitative fluorescence cytokine array (Human Cytokine Array G3), RANTES; format: cell-based; conditions: 0.5% SLS positive control (6 hours)
Protocol: as §1, §2, §3, §4, §5, §6

IL-1α [3] = assay: Semi-quantitative fluorescence cytokine array (Human Cytokine Array G3), IL-1α; format: cell-based; conditions: 0.5% SLS positive control (6 hours); fluorescent signal intensity
Protocol: as §1, §2, §3, §4, §5, §6

IL-1α [4] = assay: ELISA assay of inflammation marker IL-1α in supernatant of 2D reconstructed human epidermis; conditions: 0.5% SLS positive control (6 hours)
Protocol: This model comprises a monolayer of normal human epidermal keratinocytes (NHEK, one of the main cell types of the skin), which have been cultured on inert polycarbonate inserts.
The epidermises were treated with a 0.5% aqueous solution of Sodium Lauryl Sulfate (SLS) for 6 hours to create inflammation of the reconstructed epidermis, then the surface of the epidermises was rinsed with 500 μL of PBS. 20 μL of different concentrations of hydrogenated and highly branched dextrins (10 and 5% in ultrapure water) and 0.05% Betamethasone cream (Biogaran cream, a corticoid with an anti-inflammatory role) were applied topically to the epidermis for 20 hours at 37° C. No application was made for the SLS control within 20 hours of rinsing with PBS. […]
For this, cell supernatants are collected after the required treatment time and commercially available ELISA kits are used to quantitatively determine the presence of inflammatory markers.
These ELISA kits are designed for quantitative measurement of the aforementioned markers, particularly in culture supernatants using specific human antibodies. […] A developer solution changes the color from blue to yellow, and its intensity is measured at 450 nm using the Molecular Devices Vmax microplate reader. Absorbance values are recorded and analyzed using SOFTmax PRO v4.7.1 software. […]

IL-1β = assay: Semi-quantitative fluorescence cytokine array (Human Cytokine Array G3), IL-1β; format: cell-based; conditions: 0.5% SLS positive control (6 hours)
Protocol: as §1, §2, §3, §4, §5, §6

## CC(C)=CCC[C@](C)(O)C1CC=C(C)CC1 (stereo partly drawn) [bisabolol]
[1]; 0.5% SLS (6 hours) + 0.5% bisabolol (20 hours)
  Membrane integrity (%): 16.8%

## C[C@H]1C[C@H]2[C@@H]3CCC4=CC(=O)C=C[C@]4(C)[C@@]3(F)[C@@H](O)C[C@]2(C)[C@@]1(O)C(=O)CO [betamethasone]
[1]; 0.5% SLS (6 hours) + 0.5% betamethasone (20 hours)
  Membrane integrity (%): 110.7%

## CCCCCCCCCCCCOS(=O)(=O)[O-].[Na+] [SLS, Sodium Lauryl Sulfate]
VEGF
  VEGF Sample/Untreated ratio: 1.9
IL-8
  IL-8 Sample:Untreated ratio: 3.2
  IL-8 assayed quantity: (453 pg/mL)
[2]; 0.5% SLS positive control (6 hours)
  Viability %: 82.1%
[2]; 2% SLS positive control, mean of 3 replicates
  Viability %: 0.9%
RANTES
  RANTES Sample/Untreated ratio: 6.7
IL-1α [3]
  IL-1α Sample/Untreated ratio: 2.3
IL-1α [4]
  IL-1a Sample:Untreated ratio: 2.3
  IL-1a assayed quantity: (61 pg/mL)
IL-1β
  IL-1β Sample/Untreated ratio: 0.8
